According to patent publication US20080287513A1, “Topical compositions containing metronidazole” (priority 2007, published 2008):

Experiments:
[1] = Physical stability test of aqueous metronidazole compositions (crystal formation or precipitation); assay type: physicochemical; settings: for Results from stability test: 24 h room temperature then 7 days at about 4 °C
Method: The solubility enhancing effect of the combination of niacinamide and urea in increasing the solubility of metronidazole in the aqueous compositions is evaluated by physical stability of the prepared compositions.
Therefore, the formulations are subject to a physical stability test. The protocol for the stability test is as follows: metronidazole and the solubility enhancing agents are combined with water either at room temperature or elevated temperature while stirring until dissolved. The solutions are permitted to cool to room temperature. Customary auxiliaries and additives may be added to the aqueous solutions containing solubilized metronidazole and solubility enhancing agents. The solutions may be gelled by using the suitable gelling agents. The compositions both in gel or solution form are then packaged in clear glass vials and sealed. The vials are kept at room temperature for 24 hours and monitored for crystal formation or precipitation. After 24 hours, the vials are placed in a refrigerator maintained at a temperature of about 4° C. for 7 days. After 7 days, the vials are removed from the refrigerator. Evidence of crystal formation or precipitation is examined.
Each formulation was prepared by combining niacinamide and metronidazole in water (q.s 100%). The mixture was kept at a temperature of about 45° C. while stirring until dissolved. The solutions were permitted to cool to room temperature, packaged and sealed in glass vials. The stability tests described in Example 1 were performed and the test results were recorded.
Each formulation was prepared by combining urea and metronidazole in water (q.s 100%). The mixture was kept at a temperature of about 45° C. while stirring until dissolved. The solutions were permitted to cool to room temperature, packaged and sealed in glass vials. The stability tests described in Example 1 were performed and the test results were recorded.
Each formulation was prepared by combining urea, niacinamide, and metronidazole in water (q.s 100%). The mixture was kept either at room temperature or at a temperature of about 45° C. while stirring until dissolved. The solutions were permitted to cool to room temperature, packaged and sealed in glass vials. The stability tests described in Example 1 were performed and the test results were recorded.

[2] = at 25 °C; cited from earlier work

In the case of `Cc1ncc([N+](=O)[O-])n1CCO` [Metronidazole, 1-(2-hydroxyethyl)-2-methyl-5-nitroimidazole], the “Results from stability test” value ([1]; 1.0% metronidazole + 1.0% urea + 3.0% niacinamide in water) was “Crystals”, the “Results from stability test” value ([1]; 1.0% metronidazole + 1.0% urea + 4.0% niacinamide in water) was “Clear” and the “Results from stability test” value ([1]; 1.0% metronidazole + 2% niacinamide in water) was “Crystals formed”. For the same molecule, the “Results from stability test” value ([1]; 1.0% metronidazole + 3% niacinamide in water) was “Crystals formed”, the “Results from stability test” value ([1]; 1.0% metronidazole + 3.0% urea + 3.0% niacinamide in water) was “Clear” and the “Results from stability test” value ([1]; 1.0% metronidazole + 4% niacinamide in water) was “Crystals formed”. The “Results from stability test” value ([1]; 1.0% metronidazole + 4.0% urea + 1.0% niacinamide in water) was “Crystals”, the “Results from stability test” value ([1]; 1.0% metronidazole + 5% niacinamide in water) was “Clear” and the “Results from stability test” value ([1]; 1.0% metronidazole + 5.0% urea + 1.0% niacinamide in water) was “Clear”. For the same molecule, the “Results from stability test” value ([1]; 1.0% metronidazole + 5.0% urea + 1.0% niacinamide in water, listed as metronidazole) was “stable”, the “Results from stability test” value ([1]; 1.0% metronidazole + 5.0% urea + 2.0% niacinamide in water) was “Clear” and the “Results from stability test” value ([1]; 1.0% metronidazole + 7% urea in water) was “Crystals formed”. For the same molecule, the “Results from stability test” value ([1]; 1.0% metronidazole + 7% urea in water, listed as metronidazole) was “not sufficient to solubilize”, the “Results from stability test” value ([1]; 1.0% metronidazole + 8% urea in water) was “Crystals formed” and the “Results from stability test” value ([1]; 1.0% metronidazole + 9% urea in water) was “Crystals formed”. The “Results from stability test” value ([1]; 1.0% metronidazole + 10% urea in water) was “Clear”, the “Results from stability test” value ([1]; 1.2% metronidazole + 10.0% urea + 2.0% niacinamide in water) was “Clear” and the “Results from stability test” value ([1]; 1.5% metronidazole + 15.0% urea + 4.0% niacinamide in water) was “Clear”.
In the case of `NC(=O)c1cccnc1` [niacinamide], the “Concentration of niacinamide needed to obtain a stable aqueous solution of 1.0% metronidazole” value ([1]; concentration of urea is 1.0%) was “about 4.0%”, the “Urea concentration functionally equivalent to 1% niacinamide in inducing the solubility enhancing effect” value ([1]; from Examples 2 and 3, 1.0% metronidazole) was “about 2%” and the “Concentration of niacinamide required to obtain a stable aqueous solution of 1.0% metronidazole” value ([1]; niacinamide as the only solubility enhancing agent) was “about 5%”. The Water solubility limit [2] was “about 50 % by weight”.
For `NC(N)=O` [urea], the “Concentration of urea needed to obtain a stable aqueous solution of 1.0% metronidazole” value ([1]; concentration of niacinamide is 1.0%) is given as no less than 5.0%, the “Concentration of urea required to obtain a stable aqueous solution of 1.0% metronidazole” value ([1]; urea as the only solubility enhancing agent) is given as “about 10%” and the Water solubility limit [2] is given as “about 50 % by weight”.
